Results from PubChem BioAssay (NCI).
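Briefly, cells in 96-well plates were exposed to five compound concentrations for 48 h, and endpoints were estimated by linear interpolation. The concentration for 50% growth inhibition is given as GI50. TGI marks complete inhibition of growth.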

Experiments:
Experiment in all cases: DTP human tumour cell line panel, 48 h
CCRF-CEM leukemia = test system: CCRF-CEM leukemia
COLO 205 colon = test system: COLO 205 colon
HOP-92 NSCLC = test system: HOP-92 NSCLC
MDA-MB-435 = test system: MDA-MB-435
NCI-H522 lung = test system: NCI-H522 lung
SF-295 CNS = test system: SF-295 CNS
SK-MEL-2 melanoma = test system: SK-MEL-2 melanoma
SK-MEL-28 melanoma = test system: SK-MEL-28 melanoma
SNB-75 CNS = test system: SNB-75 CNS
U251 CNS = test system: U251 CNS

| Compound | TGI (CCRF-CEM leukemia) | TGI (COLO 205 colon) | TGI (HOP-92 NSCLC) | TGI (MDA-MB-435) | TGI (NCI-H522 lung) | TGI (SF-295 CNS) | TGI (SK-MEL-2 melanoma) | TGI (SK-MEL-28 melanoma) | TGI (SNB-75 CNS) | TGI (U251 CNS) | GI50 (CCRF-CEM leukemia) | GI50 (COLO 205 colon) | GI50 (HOP-92 NSCLC) | GI50 (MDA-MB-435) | GI50 (NCI-H522 lung) | GI50 (SK-MEL-2 melanoma) | GI50 (SK-MEL-28 melanoma) | GI50 (SNB-75 CNS) | GI50 (U251 CNS) | GI50 (SF-295 CNS) |
| --- | --- | --- | --- | --- | --- | --- | --- | --- | --- | --- | --- | --- | --- | --- | --- | --- | --- | --- | --- | --- |
| CC(C)(C)CC(C)(C)c1ccc(O)c(C[N+](C)(C)[O-])c1 | > 100 µM | > 100 µM | > 100 µM | > 100 µM | > 100 µM | > 100 µM | > 100 µM | > 100 µM | > 100 µM | > 100 µM |  |  |  |  |  |  |  |  |  |  |
| O=C1CC2CCC(C1)S2=O (centres undefined) | > 100 µM | > 100 µM | > 100 µM | > 100 µM | > 100 µM | > 100 µM | > 100 µM | > 100 µM | > 100 µM | > 100 µM |  |  |  |  |  |  |  |  |  |  |
| NC1CC=C(COC(=O)C(O)(c2ccccc2)C2CC2)CC1 (centres undefined) |  | > 100 µM |  |  | > 100 µM | > 100 µM |  | > 100 µM | > 100 µM | > 100 µM |  |  |  |  |  |  |  |  |  |  |
| Cc1cc(S(=O)(=O)/N=C(/NN)NNc2cccc(C(F)(F)F)n2)c(S)cc1Cl | 63.6 µM | 38.5 µM | 23.8 µM | 40.6 µM | 60.4 µM |  | 63.2 µM | 33.5 µM | 32 µM | 33.6 µM |  |  |  |  |  |  |  |  |  |  |
| Cc1ccc(CCC(=O)C(=O)O)s1 | > 100 µM | > 100 µM | > 100 µM |  | > 100 µM | > 100 µM | > 100 µM | > 100 µM | > 100 µM | > 100 µM |  |  |  |  |  |  |  |  |  |  |
| CNc1ncnc2c1cnn2Cc1cn(COCC(O)CO)nn1 (centres undefined) | > 100 µM | > 100 µM | > 100 µM | > 100 µM |  | > 100 µM | > 100 µM | > 100 µM |  | > 100 µM |  |  |  |  |  |  |  |  |  |  |
| Cc1ccc(N=C2C(=Nc3ccc(C)cc3)N(c3ccc(C)cc3)C(=S)N2C(=O)c2ccccc2)cc1 |  | > 100 µM | > 100 µM | > 100 µM | > 100 µM | 32.3 µM | > 100 µM | > 100 µM | 81.2 µM | > 100 µM |  |  |  |  |  |  |  |  |  |  |
| COc1ccc(C2=NN=C3C(c4ccccc4)=Nc4ccccc4N3C2)cc1 | 8.24 µM | 70.7 µM | > 100 µM | > 100 µM |  |  | > 100 µM | > 100 µM |  | > 100 µM |  |  |  |  |  |  |  |  |  |  |
| N#CC(C#N)=C1C(=O)NC(N)=C1C#N | > 100 µM | > 100 µM | > 100 µM | > 100 µM | > 100 µM | > 100 µM | > 100 µM | > 100 µM |  | > 100 µM |  |  |  |  |  |  |  |  |  |  |
| O=c1oc2ccccc2c(O)c1C(C/C(CCN1CCCC1)=N\Nc1ccccc1)c1ccccc1 (centres undefined) | 69.5 µM |  | 83.6 µM |  | > 100 µM | > 100 µM | > 100 µM |  | > 100 µM | > 100 µM |  |  |  |  |  |  |  |  |  |  |
| CSc1scc2c1/C(=N/NC(N)=O)CCC2 | > 100 µM | > 100 µM | 90 µM | > 100 µM |  | > 100 µM | > 100 µM | > 100 µM | > 100 µM | > 100 µM |  |  |  |  |  |  |  |  |  |  |
| Cc1c(C(=O)O)n2cnnc2c2ccccc12 | > 100 µM | > 100 µM | > 100 µM | > 100 µM | > 100 µM | > 100 µM | > 100 µM | > 100 µM |  | > 100 µM |  |  |  |  |  |  |  |  |  |  |
| C=C(c1ccccc1)c1ccccc1-c1cc(-c2ccccc2)cc(-c2ccccc2)n1 | > 100 µM |  | > 100 µM | > 100 µM | > 100 µM | > 100 µM |  | > 100 µM | > 100 µM | > 100 µM |  |  |  |  |  |  |  |  |  |  |
| CC(=O)c1c2n(n(-c3ccccc3)c1=O)C(=O)c1nccnc1-2 |  | > 100 µM | > 100 µM | > 100 µM | > 100 µM | > 100 µM | > 100 µM | > 100 µM | > 100 µM | > 100 µM |  |  |  |  |  |  |  |  |  |  |
| OC(CC(O)(C(F)(F)F)C(F)(F)F)c1ccc(C(O)CC(O)(C(F)(F)F)C(F)(F)F)cc1 (centres undefined) | 36.9 µM |  | 25.9 µM | 32.7 µM | 40.5 µM | 32.5 µM | 38.4 µM | 30.6 µM | 31.8 µM | 31.1 µM |  |  |  |  |  |  |  |  |  |  |
| COC(=O)c1c(O)ccc2c1c1c(n2Cc2ccccc2)C(=O)c2ccccc2C1 | 65.8 µM | 28.9 µM |  | > 100 µM |  | > 100 µM | > 100 µM | > 100 µM | 70.2 µM | > 100 µM |  |  |  |  |  |  |  |  |  |  |
| CC(C)(C)[Si](C)(C)OCC1OC(n2cnc3c(=O)[nH]c(N)nc32)C(O[Si](C)(C)C(C)(C)C)C1O[Si](C)(C)C(C)(C)C (centres undefined) |  | 3.2 µM | 7.37 µM | 2.88 µM | 3.61 µM | 12 µM | 1.01 µM | 3.89 µM | 9.57 µM | 3.71 µM |  |  |  |  |  |  |  |  |  |  |
| NC(N)=NCCCC(NC(=O)OCCCCn1ccc(N)nc1=O)C(=O)O (centres undefined) | > 100 µM | > 100 µM | > 100 µM | > 100 µM |  | > 100 µM | > 100 µM | > 100 µM | > 100 µM | > 100 µM |  |  |  |  |  |  |  |  |  |  |
| CC1(C)N=C(c2ccccn2)C(c2ccccn2)=NC1(C)C | > 100 µM | > 100 µM | > 100 µM |  |  | > 100 µM | > 100 µM |  |  | > 100 µM |  |  |  |  |  |  |  |  |  |  |
| COc1ccc(-c2nn(-c3ccc(NC(=O)Nc4ccc(Cl)c(C(F)(F)F)c4)cc3)cc2-c2ccncc2)cc1Cl | 6.65 µM | 3.13 µM | 3.84 µM | 4.8 µM | 3.95 µM |  | 3.75 µM | 3.64 µM | 7.86 µM | 2.59 µM | 1.4 µM | 1.62 µM | 1.14 µM | 1.79 µM | 1.27 µM | 1.74 µM | 1.67 µM | 1.36 µM | 0.928 µM |  |
| C=CCC(C(=O)Nc1cccc2[nH]cnc12)C(=O)OCC (centres undefined) |  |  | > 100 µM | > 100 µM | > 100 µM | > 100 µM | > 100 µM | > 100 µM | > 100 µM | > 100 µM |  |  |  |  |  |  |  |  |  |  |
| CN1C/C(=C\C=C\c2ccccc2)C(=O)/C(=C/C=C/c2ccccc2)C1 | > 100 µM | > 100 µM |  |  | > 100 µM | > 100 µM | > 100 µM | > 100 µM | > 100 µM | > 100 µM |  |  |  |  |  |  |  |  |  |  |
| Brc1ccc2c(-c3csc(-c4c[nH]c5ccccc45)n3)c[nH]c2c1 | 38.1 µM | 25.4 µM | 33.3 µM | 32.9 µM | 32.2 µM | 29.5 µM |  | 31 µM | 46.4 µM | 31.7 µM |  |  |  |  |  |  |  |  |  | 14.6 µM |
